Assay results: paper PMC11696576, “Next generation thiazolyl ketone inhibitors of cytosolic phospholipase A2 α for targeted cancer therapy” (Nature Communications, 2025)
“And” between values parts separate entries of the source, which are not always exact repeats. Equal entries are not always repeated. Where two headings read alike, the source gives them in different places. Marks after values point to notes of the source that are not given here.

What was measured:
[1] = stability in human plasma (LC-MS/MS); type: in vitro ADME; conditions: for Stability in human plasma 4 h: % of the compound remaining after 4 h
Description: The stability of the analogs in human plasma was studied over approximately 24 h by LC-MS/MS and the results at 4 h and the final timepoint (20–25 h) are included in Table 1.
The metabolic stability of the compounds was determined through in vitro stability assays in human plasma. Solutions of compounds in DMSO (20 mM) were diluted to 5 μg/mL in 50% methanol for infusion into the MS/MS system and spiking of calibration standards and control samples. For the MS detection, positive ionization in ESI mode was used. Good sensitivity, retention and peak shaped were achieved using a gradient with 5 mM ammonium carbamate in water and ammonium carbamate in 90% acetonitrile on a reversed phase column (ACE3AQ). Calibration standards were spiked in a calibration range of 0.5–100 ng/ml. Control samples were spiked at, low, medium, and high concentration levels. The spiked plasma samples were prepared by protein precipitation using acetonitrile containing appropriate internal standard (IS). […] Samples were prepared for analysis by taking 50 μL of plasma sample and adding 100 μL of IS working solution in acetonitrile followed by vortexing at 2500 rpm (Multi-tube vortexer DVX-2500, Henry Troemner LLC, USA) for 2 min. The samples were centrifuged at 5300 rpm (Heraeus Megafuge 1.0 Heraeus, Germany) for 3 min and the supernatant transferred to the autosampler. Recovery was determined by comparing the prepared matrix samples (protein precipitation) with a direct sample (analytes spikes in 67% acetonitrile = injection solution) such that the recovery of the sample preparation and the matrix effects were determined together. Two or three samples were each measured in technical triplicates to give the final % recovery.

[2] = molecular target: T1, secreted GV sPLA2 (Homo sapiens, UniProt P39877); assay: radioactivity-based mixed micelle assay, GV sPLA2; type: biochemical
T1 sequence (P39877 21-138): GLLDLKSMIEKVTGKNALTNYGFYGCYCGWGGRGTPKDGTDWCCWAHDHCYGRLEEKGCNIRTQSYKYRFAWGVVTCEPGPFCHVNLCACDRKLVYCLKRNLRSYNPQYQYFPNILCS
Description: (§1) All synthesized thiazolyl ketones were tested for their in vitro inhibitory activity on recombinant human cPLA2α and selectivity over human calcium-independent GVIA iPLA2 and secreted GV sPLA2 using our previously described group-specific radioactivity-based mixed micelle assays. The inhibition results are presented either as per cent inhibition or as XI(50) values in Table 1. […] The XI(50) is defined as the mole fraction of the inhibitor in the total substrate interface required to inhibit the enzyme activity by 50%. For comparison purposes, previously published data for the inhibitor GK470[19] are included. […] Inhibitors were initially screened at 0.091 mol fraction (5 μL of 5 mM inhibitor in DMSO) in substrate (495 μL) in technical triplicates. […] The XI(50) value and stdev values reported are for the entire curve. This analysis was performed in GraphPad Prism v6.

[3] = molecular target: T2, recombinant human cPLA2α (Homo sapiens, UniProt P47712); assay: radioactivity-based mixed micelle assay, cPLA2α; type: biochemical
T2 sequence (P47712 1-749): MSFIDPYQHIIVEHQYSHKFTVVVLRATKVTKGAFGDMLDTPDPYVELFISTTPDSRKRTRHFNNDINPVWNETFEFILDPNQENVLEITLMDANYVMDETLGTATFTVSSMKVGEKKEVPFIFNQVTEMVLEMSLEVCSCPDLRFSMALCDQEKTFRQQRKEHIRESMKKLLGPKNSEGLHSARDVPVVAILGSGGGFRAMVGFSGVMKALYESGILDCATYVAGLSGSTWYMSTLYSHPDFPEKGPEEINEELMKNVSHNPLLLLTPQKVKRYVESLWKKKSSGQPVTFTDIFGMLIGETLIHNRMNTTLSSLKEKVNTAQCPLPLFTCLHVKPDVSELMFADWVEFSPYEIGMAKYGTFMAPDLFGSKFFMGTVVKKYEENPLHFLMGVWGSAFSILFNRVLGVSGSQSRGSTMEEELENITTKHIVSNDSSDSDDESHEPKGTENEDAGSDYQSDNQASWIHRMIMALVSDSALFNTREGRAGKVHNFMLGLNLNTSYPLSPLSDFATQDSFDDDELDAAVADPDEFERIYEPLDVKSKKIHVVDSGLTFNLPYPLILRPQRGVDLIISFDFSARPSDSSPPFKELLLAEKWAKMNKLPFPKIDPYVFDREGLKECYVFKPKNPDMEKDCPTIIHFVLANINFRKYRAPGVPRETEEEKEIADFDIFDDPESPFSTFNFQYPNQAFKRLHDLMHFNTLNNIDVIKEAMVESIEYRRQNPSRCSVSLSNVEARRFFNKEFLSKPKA
Description: as §1

[4] = tested on: SW982 synoviocytes; assay: cellular arachidonic acid (AA) release assay, IL-1β stimulated; type: cell-based, human; conditions: for % inhibition of stimulated AA release: individual biological replicate; for inhibition at 1 µM / EC50 / IC50: Homo sapiens; for inhibition at 1 µM: SW982, 4 h, 1 µM inhibitor, mean ± stdev, read-out: AA release % Inhib; for EC50 / IC50: SW982; for IC50: concentration in µM, read-out: logEC50 best-fit value, AA release (converted)
Source text: To test the inhibitory activity of the compounds in cells, we measured their effect on the release of AA from synoviocytes stimulated with IL-1β (Table 2). […] Combined with favorable selectivity and stability it was thus chosen for further evaluation. We looked specifically at how it modulated eicosanoid levels in response to stimulation both in whole blood and in isolated peripheral blood mononuclear cells (PBMCs) and checked for off-target effects on AA metabolism in whole blood by also measuring the effect of GK420 on eicosanoid release in the presence of exogenous free AA.
The human synovial sarcoma cell line SW982 (ATCC, London, UK) was used to measure AA release. The cells were maintained in Dulbecco’s Modified Eagle Medium (DMEM) supplemented with 10% FBS, 0.1 mg/mL gentamicin, and 0.3 mg/mL L-glutamine at 37 °C with 10% CO2, and experiments were performed at 3 days post-confluence. To measure AA release, the cells were labeled overnight with ^3H-AA (0.4 μCi/mL) in serum-free DMEM and then washed twice with PBS containing fBSA (2 mg/mL) to remove unincorporated radioactivity. The inhibitors, or DMSO vehicle control, were subsequently added to the cells for 1 hour prior to stimulation with 10 ng/mL IL-1β for 4 h. Supernatants were collected and centrifuged at 300 × g for 5 min to clear them of detached cells and adherent cells were dissolved in 1 N NaOH. The ^3H-AA was assessed by liquid scintillation counting (LS 6500 Multi-Purpose Scintillation Counter, Beckman Coulter, Inc., USA) and the results are given as the inhibition of released ^3H-AA in the supernatants relative to total ^3H-AA incorporated into the cells, as described. EC50 values were calculated by fitting the % inhibition data to a three-parameter dose-response curve in GraphPad prism v10.4.0. Experiments were performed in technical triplicates and repeated at least three times.

[5] = individual sample, human plasma
[6] = 0.091 mole fraction, read-out: GV sPLA2 % Inhib
[7] = individual technical replicate, read-out: sPLA2 % inhibition at 0.091 mole fraction
[8] = 0.091 mole fraction, read-out: cPLA2α % Inhib
[9] = individual technical replicate, read-out: cPLA2 % inhibition at 0.091 mole fraction
[10] = IL-1β 4 h, 0.2, 1 or 5 µM inhibitor, read-out: AA release EC50 µM (95% CI)
[11] = [Agonist] vs. Response (three parameters)
[12] = [Agonist] vs. Response (three parameters), read-out: EC50 best-fit value, AA release

| SMILES | Stability in human plasma 4 h [1] [%] | plasma stability 4h (%) [1, 5] | inhibition at 0.091 mole fraction [2, 6] [%] | inhibition at 0.091 mole fraction [2, 7] [%] | inhibition at 0.091 mole fraction [3, 8] [%] | inhibition at 0.091 mole fraction [3, 9] [%] | % inhibition of stimulated AA release ([4]; 0.2 µM) | % inhibition of stimulated AA release ([4]; 1 µM) | % inhibition of stimulated AA release ([4]; 5 µM) | inhibition at 1 µM ([4]; IL-1β 4 h) [%] | EC50 [4, 10] [µM] | IC50 [4, 11] [µM] | EC50 [4, 12] [µM] | other results |
| --- | --- | --- | --- | --- | --- | --- | --- | --- | --- | --- | --- | --- | --- | --- |
| CCCCCCSc1ccc(OC(C)C(=O)c2nc(C(=O)OC)cs2)cc1 (stereo not shown) [GK449] | 63 | 58.4% and 67.6% | 53 | 51.8 | 98 | 96.2 | 16.56% and 7.46% and 9.46% and 46.5% | 47.16% and 43.5% and 67.91% and 74.94% | 92.05% and 77.81% and 56.83% and 101.84% | 58 ± 15 | 0.78 | 0.783 | 0.783 | Stability in human plasma 20+ h ([1]; % of the compound remaining after 24 h 39 min (*)): 18.35* %; plasma stability 24h39min (%) [1, 5]: 16.1% and 20.6%; cPLA2α XI(50) ([3]; XI(50) ± stdev, mole fraction of inhibitor in total substrate interface for 50% inhibition): 0.0017 mole fraction and 0.0017 ± 0.0005 mole fraction; cPLA2 % inhibition at 0.091 mole fraction, average ([3]; average of triplicates): 97.5%; times more potent than GK470 ([3]; cPLA2α XI(50) relative to GK470): 7–11 |
| CCCCCCOc1ccc(SCC(=O)c2nc(C(=O)OC)cs2)cc1 [GK419] | 82 | 82.6% and 81.4% | 29 | 33.4 | 50 | 54 | 23.74% and 36.06% and 29.89% and 8.79% | 51.4% and 93.19% and 85.38% and 54.33% | 98.65% and 99.61% and 98.35% and 63.6% | 71 ± 21 | 0.5 | 0.495 | 0.495 | Stability in human plasma 20+ h ([1]; % of the compound remaining after 20 h): 52.7%; plasma stability 20h (%) [1, 5]: 53.1% and 52.3%; inhibition at 0.091 mole fraction ([2]; average of triplicates, read-out: sPLA2 % inhibition at 0.091 mole fraction, average): 29.2% |
